Measured values reported in patent US11970474B2, “Substituted benzodiazoles and use thereof in therapy” (THOMAS HELLEDAYS STIFTELSE FÖR MEDICINSK FORSKNING, priority 2018, dated 2024).

What was measured:
OGG1 = OGG1 (Homo sapiens (Human), UniProt O15527); experiment: In vitro OGG1 activity assay; assay type: biochemical; conditions: 800 pM OGG1 enzyme, 2 nM human APEX1, 10 nM 8-oxoA:C substrate
Method in brief: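 Fluorescence-release assay on a duplex oligonucleotide carrying an OGG1 substrate base beside a fluorophore, quenched from the complementary strand. Excess APEX1 cleaves the abasic site left by base excision, melting the duplex and unquenching the fluorophore. Compounds in DMSO were dispensed before enzyme and substrate, and fluorescein signal was read.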

MLE12 cells = experiment: Cell viability assay in MLE12 cells (resazurin); assay type: cell-based, mouse; conditions: Mus musculus, MLE12, 24 h, TNF-α 20 ng/ml, resazurin added after 24 hours culture
Method in brief: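 MLE12 cells (7500 cells/well) were seeded onto 11-point duplicate compound dose-responses, with TNF-α (final 20 ng/ml) added after 1 hour at 37° C. After 24 hours, resazurin was added for 6 hours and resorufin fluorescence read (ex544 nm/em595 nm). EC50 values were calculated by curve fitting.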

CCL2 = experiment: Mouse CCL2 assay in MLE12 cells; assay type: cell-based; conditions: Mus musculus, MLE12, 30 h, MLE12 cells; TNF-α 20 ng/ml; supernatant after 30 hours; HTRF; read-out: CCL2 (EC50)
Method in brief: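 MLE12 mouse lung epithelial cells (7500/well, DMEM/F12 with 5% FBS) preincubated 1 h with compounds (6-point dose-response, duplicate), then stimulated with TNF-α (final 20 ng/ml) for 30 h at 37 °C. Secreted CCL2 measured by HTRF sandwich immunoassay (Ex330/Em620, 665 nm) against standard curve; IC50 from delta ratios.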

OGG1, sequence (O15527 whole entry): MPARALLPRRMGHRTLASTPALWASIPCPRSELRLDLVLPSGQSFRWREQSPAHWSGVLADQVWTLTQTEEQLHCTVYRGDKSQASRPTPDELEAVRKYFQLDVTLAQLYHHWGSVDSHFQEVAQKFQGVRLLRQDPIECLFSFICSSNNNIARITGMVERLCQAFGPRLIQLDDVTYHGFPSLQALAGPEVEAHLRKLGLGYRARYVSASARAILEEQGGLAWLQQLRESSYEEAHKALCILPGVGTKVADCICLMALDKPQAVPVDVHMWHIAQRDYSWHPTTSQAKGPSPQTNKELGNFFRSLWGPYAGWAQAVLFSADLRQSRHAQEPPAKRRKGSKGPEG

IC50 (OGG1) [µM]	EC50 (CCL2) [µM]	SMILES	IC50 (MLE12 cells) [µM]
0.014	30.8	COc1cc(NC(=O)[C@H]2CC[C@@H](n3c(=O)[nH]c4c(NC(=O)CN(C)C)cccc43)CC2)ccc1C [Example 283, Cis-4-{4-[2-(dimethylamino)acetamido]-2-oxo-2,3-dihydro-1H-1,3-benzodiazol-1-yl}-N-(3-methoxy-4-methylphenyl)cyclohexane-1-carboxamide]	19.8
0.0451	> 33	COc1cc(NC(=O)[C@H]2CC[C@@H](n3c(=O)[nH]c4c(NC(=O)CN5CCOCC5)cccc43)CC2)ccc1C [Example 285, Cis-N-(3-methoxy-4-methylphenyl)-4-{4-[2-(morpholin-4-yl)acetamido]-2-oxo-2,3-dihydro-1H-1,3-benzodiazol-1-yl}cyclohexane-1-carboxamide]	15.9
0.0181	> 33	COc1cc(NC(=O)[C@H]2CC[C@@H](n3c(=O)[nH]c4c(NC(=O)[C@@H]5C[C@@H](O)CN5)cccc43)CC2)ccc1C [Example 286, (2S,4R)-4-Hydroxy-N-{2-oxo-1-[cis-4-[(3-methoxy-4-methylphenyl)carbamoyl]cyclohexyl]-2,3-dihydro-1H-1,3-benzodiazol-4-yl}pyrrolidine-2-carboxamide]	20.3
0.0517	32.1	COc1cc(NC(=O)[C@H]2CC[C@@H](n3c(=O)[nH]c4c(NC(=O)C5CNCCO5)cccc43)CC2)ccc1C (stereo partly drawn) [Example 289, N-{2-Oxo-1-[cis-4-[(3-methoxy-4-methylphenyl)carbamoyl]cyclohexyl]-2,3-dihydro-1H-1,3-benzodiazol-4-yl}morpholine-2-carboxamide]	24.5
0.00962	11.1	COc1cc(NC(=O)[C@H]2CC[C@@H](n3c(=O)[nH]c4c(N5CC[C@H](N(C)C)C5)cccc43)CC2)ccc1C [Example 295, Cis-4-{4-[(3S)-3-(dimethylamino)pyrrolidin-1-yl]-2-oxo-2,3-dihydro-1H-1,3-benzodiazol-1-yl}-N-(3-methoxy-4-methylphenyl)cyclohexane-1-carboxamide]	10.4
0.0286	10.5	COc1cc(NC(=O)[C@H]2CC[C@@H](n3c(=O)[nH]c4c(N(C)C5CCN(C)C5)cccc43)CC2)ccc1C (stereo partly drawn) [Example 296, Cis-N-(3-Methoxy-4-methylphenyl)-4-{4-[methyl(1-methylpyrrolidin-3-yl)amino]-2-oxo-2,3-dihydro-1H-1,3-benzodiazol-1-yl}cyclohexane-1-carboxamide]	13.5
0.00807	30.8	CNCCN(C)c1cccc2c1[nH]c(=O)n2[C@H]1CC[C@@H](C(=O)Nc2ccc(C)c(OC)c2)CC1 [Example 297, Cis-N-(3-methoxy-4-methylphenyl)-4-(4-{methyl[2-(methylamino)ethyl]amino}-2-oxo-2,3-dihydro-1H-1,3-benzodiazol-1-yl)cyclohexane-1-carboxamide]	28.9
0.012	36.6	COc1cc(NC(=O)[C@H]2CC[C@@H](n3c(=O)[nH]c4c(N(C)CCN)cccc43)CC2)ccc1C [Example 298, Cis-4-{4-[(2-aminoethyl)(methyl)amino]-2-oxo-2,3-dihydro-1H-1,3-benzodiazol-1-yl}-N-(3-methoxy-4-methylphenyl)cyclohexane-1-carboxamide]	29.2
0.0272	31.7	COc1cc(NC(=O)[C@H]2CC[C@@H](n3c(=O)[nH]c4c(NC(=O)c5cc[nH]n5)cccc43)CC2)ccc1C [Example 299, N-{2-Oxo-1-[cis-4-[(3-methoxy-4-methylphenyl)carbamoyl]cyclohexyl]-2,3-dihydro-1H-1,3-benzodiazol-4-yl}-1H-pyrazole-3-carboxamide]	10.2
0.0099	2.11	COc1cc(NC(=O)[C@H]2CC[C@@H](n3c(=O)[nH]c4c(NC(=O)c5cc(C)on5)cccc43)CC2)ccc1C [Example 300, 5-Methyl-N-{2-oxo-1-[cis-4-[(3-methoxy-4-methylphenyl)carbamoyl]cyclohexyl]-2,3-dihydro-1H-1,3-benzodiazol-4-yl}-1,2-oxazole-3-carboxamide]	1.58
0.00691	43	COc1cc(NC(=O)[C@H]2CC[C@@H](n3c(=O)[nH]c4c(NC(=O)c5cnco5)cccc43)CC2)ccc1C [Example 301, N-{2-Oxo-1-[cis-4-[(3-methoxy-4-methylphenyl)carbamoyl]cyclohexyl]-2,3-dihydro-1H-1,3-benzodiazol-4-yl}-1,3-oxazole-5-carboxamide]	16.2
0.0164	27.2	COc1cc(NC(=O)[C@H]2CC[C@@H](n3c(=O)[nH]c4c(N(C)CCCN)cccc43)CC2)ccc1C [Example 302, Cis-4-{4-[(3-aminopropyl)(methyl)amino]-2-oxo-2,3-dihydro-1H-1,3-benzodiazol-1-yl}-N-(3-methoxy-4-methylphenyl)cyclohexane-1-carboxamide]	14.4
0.0038	10.6	COc1cc(NC(=O)[C@H]2CC[C@@H](n3c(=O)[nH]c4c(OCCN(C)C)cccc43)CC2)ccc1C [Example 304, Cis-4-{4-[2-(dimethylamino)ethoxy]-2-oxo-2,3-dihydro-1H-1,3-benzodiazol-1-yl}-N-(3-methoxy-4-methylphenyl)cyclohexane-1-carboxamide]	8.27
0.251	8.11	COc1cc(NC(=O)[C@H]2CC[C@@H](n3c(=O)[nH]c4c(N(C)CCCNC(=O)OC(C)(C)C)cccc43)CC2)ccc1C [Example 305, tert-Butyl N-{3-[methyl({2-oxo-1-[cis-4-[(3-methoxy-4-methylphenyl)carbamoyl]cyclohexyl]-2,3-dihydro-1H-1,3-benzodiazol-4-yl})amino]propyl}carbamate]	4.88
0.00282	8.07	COc1cc(NC(=O)[C@H]2CC[C@@H](n3c(=O)[nH]c4c(OCCCN(C)C)cccc43)CC2)ccc1C [Example 306, Cis-4-{4-[3-(dimethylamino)propoxy]-2-oxo-2,3-dihydro-1H-1,3-benzodiazol-1-yl}-N-(3-methoxy-4-methylphenyl)cyclohexane-1-carboxamide]	7.15
0.0125	32	COc1cc(NC(=O)[C@H]2CC[C@@H](n3c(=O)[nH]c4c(OC5CCNCC5)cccc43)CC2)ccc1C [Example 307, Cis-N-(3-methoxy-4-methylphenyl)-4-[2-oxo-4-(piperidin-4-yloxy)-2,3-dihydro-1H-1,3-benzodiazol-1-yl]cyclohexane-1-carboxamide]	28.8
0.157	2.04	COc1cc(NC(=O)[C@H]2CC[C@@H](n3c(=O)[nH]c4c(OCCN(C)C(=O)OC(C)(C)C)cccc43)CC2)ccc1C [Example 308, tert-Butyl N-methyl-N-[2-({2-oxo-1-[cis-4-[(3-methoxy-4-methylphenyl)carbamoyl]cyclohexyl]-2,3-dihydro-1H-1,3-benzodiazol-4-yl}oxy)ethyl]carbamate]	0.215
0.00326	27.8	CNCCOc1cccc2c1[nH]c(=O)n2[C@H]1CC[C@@H](C(=O)Nc2ccc(C)c(OC)c2)CC1 [Example 309, Cis-N-(3-methoxy-4-methylphenyl)-4-{4-[2-(methylamino)ethoxy]-2-oxo-2,3-dihydro-1H-1,3-benzodiazol-1-yl}cyclohexane-1-carboxamide]	15.6
